Measured values: PMC6061685 (Toxicological Sciences, 2018)
“Also recorded” adds a separate entry of the source. Where two headings read alike, the source gives them in different places.

Columns and labels:
AR [1] = settings: exposure 0–10 µM; ref Vinggaard et al. (2000); cited from earlier work
AR [2] = settings: exposure 0–100 µM; ref Kizu et al. (2003); cited from earlier work
[3] = target: T1, estrogen receptor alpha (ERα) (Homo sapiens, UniProt P03372); test: U2OS ERα CALUX antagonist assay; type: cell-based; settings: 24 h exposure; with EC50 concentration of E2 (2.7 × 10^−6 µg/ml)
T1 sequence (P03372 1-595): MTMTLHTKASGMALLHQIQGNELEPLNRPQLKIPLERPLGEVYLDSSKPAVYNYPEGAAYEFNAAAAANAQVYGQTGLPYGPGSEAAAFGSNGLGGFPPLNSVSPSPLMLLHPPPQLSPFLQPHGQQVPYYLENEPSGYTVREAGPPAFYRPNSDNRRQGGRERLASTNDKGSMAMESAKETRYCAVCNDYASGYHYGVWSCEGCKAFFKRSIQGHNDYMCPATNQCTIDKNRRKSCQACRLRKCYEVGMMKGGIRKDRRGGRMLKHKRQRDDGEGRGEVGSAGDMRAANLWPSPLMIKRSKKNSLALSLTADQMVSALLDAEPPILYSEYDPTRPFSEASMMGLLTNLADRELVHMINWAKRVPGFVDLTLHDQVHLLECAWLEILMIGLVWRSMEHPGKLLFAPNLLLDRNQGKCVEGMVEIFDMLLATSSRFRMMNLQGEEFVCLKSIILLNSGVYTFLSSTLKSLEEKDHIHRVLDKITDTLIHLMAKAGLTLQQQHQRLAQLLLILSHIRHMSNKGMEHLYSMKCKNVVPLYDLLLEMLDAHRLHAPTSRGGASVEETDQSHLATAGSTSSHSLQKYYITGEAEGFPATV

ERα [4] = settings: 10 mg/kg bw/day; ref Kummer et al. (2008); cited from earlier work
ERα [5] = settings: exposure 0–10 µM; ref Charles et al. (2000); cited from earlier work
[6] = target: T2, aryl hydrocarbon receptor (AhR) (Rattus norvegicus, UniProt P41738); test: H4IIE AhR CALUX agonist assay; type: cell-based
T2 sequence (P41738 10-853): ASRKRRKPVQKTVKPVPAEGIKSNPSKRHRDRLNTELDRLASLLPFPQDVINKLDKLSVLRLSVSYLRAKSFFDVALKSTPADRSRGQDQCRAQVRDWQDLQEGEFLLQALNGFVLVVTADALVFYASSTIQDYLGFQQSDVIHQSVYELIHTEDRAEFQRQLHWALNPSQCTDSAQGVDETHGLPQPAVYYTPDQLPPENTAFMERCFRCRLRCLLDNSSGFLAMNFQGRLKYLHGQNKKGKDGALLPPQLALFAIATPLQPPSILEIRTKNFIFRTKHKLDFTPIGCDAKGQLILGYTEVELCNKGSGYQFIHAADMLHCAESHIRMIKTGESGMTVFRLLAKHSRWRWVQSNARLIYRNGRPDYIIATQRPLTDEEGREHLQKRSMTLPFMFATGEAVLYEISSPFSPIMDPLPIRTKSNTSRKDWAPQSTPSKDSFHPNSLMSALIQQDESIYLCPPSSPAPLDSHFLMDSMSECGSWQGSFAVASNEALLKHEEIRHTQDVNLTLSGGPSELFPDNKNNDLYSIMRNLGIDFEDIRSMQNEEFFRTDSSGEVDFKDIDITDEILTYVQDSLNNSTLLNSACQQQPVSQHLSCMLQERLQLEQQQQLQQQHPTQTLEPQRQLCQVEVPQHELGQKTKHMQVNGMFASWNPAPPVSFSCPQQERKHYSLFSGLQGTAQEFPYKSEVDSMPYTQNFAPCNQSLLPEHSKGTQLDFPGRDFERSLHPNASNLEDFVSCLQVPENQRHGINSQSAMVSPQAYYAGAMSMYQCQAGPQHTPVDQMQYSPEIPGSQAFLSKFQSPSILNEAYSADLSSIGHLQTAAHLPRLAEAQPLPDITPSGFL

| Compound | Effects on AR (AR [1]) | Effects on AR (AR [2]) | further results |
| --- | --- | --- | --- |
| c1ccc2cc3ccccc3cc2c1 [Anthracene] | AR antagonist; also recorded: Phenanthrene, Anthracene, Pyrene: antagonize the AR activity just at the highest tested concentration | Anthracene and Pyrene show no AR-mediated activity. |  |
| C[C@]12CC[C@@H]3c4ccc(O)cc4C[C@@H](CCCCCCCCC[S+]([O-])CCCC(F)(F)C(F)(F)F)[C@H]3[C@@H]1CC[C@@H]2O (some centres unmarked) [Fulvestrant, fulvestrant] |  |  | ERα Antagonist Assay IC25 [3]: 0.011 ng/mL |
| c1ccc2c(c1)ccc1ccccc12 [Phenanthrene] | AR antagonist; also recorded: Phenanthrene, Anthracene, Pyrene: antagonize the AR activity just at the highest tested concentration |  |  |
| c1ccc2c(c1)-c1cccc3cccc-2c13 [Fluoranthene] | AR antagonist |  | Effects on ERα (ERα [4]): ERα agonist (except for Benzo[k]fluoranthene) |
| Oc1ccc2cc3ccc4cccc5ccc(c2c1)c3c45 [9OH-BaP] |  |  | Effects on ERα (ERα [5]): Hydroxy metabolites of BaP, including 3OH-BaP, 9OH-BaP, and 9, 10OH-BaP, act as ERα agonist. |
| c1ccc2cc3c(cc2c1)-c1cccc2cccc-3c12 [Benzo[k]fluoranthene] |  | AR antagonist (except for anthracene and pyrene) | Effects on ERα (ERα [4]): Benzo[k]fluoranthene shows no ERα-mediated activity. |
| Cc1c2ccccc2c(C)c2c1ccc1ccccc12 [7, 12-dimethylbenz[a]anthracene] | AR antagonist |  |  |
| Oc1ccc2ccc3c4ccccc4cc4ccc1c2c43 [3OH-BaP] |  |  | Effects on ERα (ERα [5]): Hydroxy metabolites of BaP, including 3OH-BaP, 9OH-BaP, and 9, 10OH-BaP, act as ERα agonist. |
| c1ccc2c(c1)cc1ccc3cccc4ccc2c1c34 [BaP, benzo[a]pyrene, reference compound] | AR antagonist | AR antagonist (except for anthracene and pyrene) | EC50 [6]: 12.3 nM |
| c1ccc2cc3c(ccc4ccccc43)cc2c1 [Benz[a]anthracene] | AR antagonist |  |  |
| c1cc2ccc3cccc4ccc(c1)c2c34 [Pyrene] | AR antagonist; also recorded: Phenanthrene, Anthracene, Pyrene: antagonize the AR activity just at the highest tested concentration | Anthracene and Pyrene show no AR-mediated activity. |  |
